Measured values reported in patent publication EP4818312A2.

Details: from C=C[C@@H]1OC(c2ccc(OC)cc2)O[C@]1(C)CC[C@H](CC(=O)O[C@H](/C(C)=C/I)[C@@H](C)C=C)O[Si](C)(C)C(C)(C)C; rcm bond; Hoveyda-Grubbs 2nd generation; toluene; 6.52 mM; 110.0 °C; 5.0 h

`COc1ccc(C2O[C@H]3C=C[C@H](C)[C@@H](/C(C)=C/I)OC(=O)C[C@H](O[Si](C)(C)C(C)(C)C)CC[C@@]3(C)O2)cc1` (stereo partly shown) gave a ring closure, yield of all isomers of 50%.
